The subject of data set [1] is VERO green monkey kidney cells. As to the kind of experiment: VERO mammalian cell toxicity assay. Type of data set: cell-based. The conditions noted are these: Chlorocebus sabaeus; inhibition of growth of VERO green monkey kidney epithelial cells.
For data set [2], the system named is Mycobacterium tuberculosis (strain H37Rv). As to the kind of experiment: LORA minimum inhibitory concentration assay (low-oxygen/non-replicating). Particulars: M.tb H37Rv, 90% inhibition of growth.
For data set [3] the test system is unchanged. As to the kind of experiment: MABA minimum inhibitory concentration assay (aerobic/replicating). Type of data set: cell-based. The conditions noted are these: M.tb H37Rv; for MIC90: Mycobacterium tuberculosis, aerobic/replicating, 90% inhibition of growth; for anti-mycobacterial activity in words: MABA/LORA.

Values after ≈ are worked out from the molar mass of the structure shown.

By IC50 is commonly meant the concentration that gives 50% inhibition. Broadly, the MIC90 is the lowest concentration that inhibits either 90% of growth or 90% of the strains tested, depending on the study. The term melting point denotes the temperature, or range, at which the solid turns liquid. The compound `Fc1ccc(-c2cnn3c(NCc4cc(N5CCCC5)ccn4)cc(-c4ccccc4)nc23)cc1` [Compound 64, 3-(4-Fluorophenyl)-5-phenyl-N-((4-(pyrrolidin-1-yl)pyridin-2-yl)methyl)pyrazolo[1,5-a]pyrimidin-7-amine] displayed a melting point of 221 to 223 °C. For the same compound, it took 16 µg/mL (≈ 34.4 µM) to reach half-maximal inhibition in data set [1] (IC50). In data set [2], the “MIC90 LORA” value was found to be 0.94 µg/mL (≈ 2.02 µM). Further, the MIC90 in data set [3] came to 0.47 µg/mL (≈ 1.01 µM).

`FC(F)(F)c1ccc(-c2cnn3c(NCc4ccccn4)cc(-c4ccccc4)nc23)cc1` [Compound 21, 5-Phenyl-N-(pyridin-2-ylmethyl)-3-(4-(trifluoromethyl)phenyl)pyrazolo[1,5-a]pyrimidin-7-amine] had a melting point of 188 to 190 °C. The compound further yielded an IC50 in data set [1] of over 32 µg/mL. Also, the “MIC90 LORA” value in data set [2] is given as over 32 µg/mL. Besides, in data set [3], the “anti-mycobacterial activity in words” value was “inactive” and the MIC90 is over 32 µg/mL.

In turn, `FC(F)(F)c1cccc(-c2cnn3c(NCc4ccccn4)cc(-c4ccccc4)nc23)c1` [Compound 17, 5-Phenyl-N-(pyridin-2-ylmethyl)-3-(3-(trifluoromethyl)phenyl)pyrazolo[1,5-a]pyrimidin-7-amine] registered a melting point of 156 to 158 °C. Moreover, the IC50 in data set [1] is over 32 µg/mL. In addition, the “MIC90 LORA” value in data set [2] is over 32 µg/mL. The compound further returned an MIC90 in data set [3] of over 32 µg/mL.

Turning to `COc1ccccc1-c1cnn2c(NCc3ccccn3)cc(-c3ccccc3)nc12` [Compound 12, 3-(2-Methoxyphenyl)-5-phenyl-N-(pyridin-2-ylmethyl)pyrazolo[1,5-a]pyrimidin-7-amine], the melting point was in the range of 169 to 171 °C. Besides, in data set [1], the IC50 is over 32 µg/mL. Also, the “MIC90 LORA” value in data set [2] was over 32 µg/mL. The MIC90 in data set [3] is over 32 µg/mL.

Compound `Fc1ccc(-c2cnn3c(NCc4cc(Cl)ccn4)cc(-c4ccccc4)nc23)cc1` [Compound 60, N-((4-Chloropyridin-2-yl)methyl)-3-(4-fluorophenyl)-5-phenylpyrazolo[1,5-a]pyrimidin-7-amine] yielded a melting point of 220 to 222 °C. The compound also showed an IC50 in data set [1] of over 32 µg/mL. Also, the “MIC90 LORA” value in data set [2] was over 32 µg/mL. In addition, in data set [3], the “anti-mycobacterial activity in words” value is “inactive” and the MIC90 was over 32 µg/mL.

For `CN(C)c1cccnc1CNc1cc(-c2ccccc2)nc2c(-c3ccc(F)cc3)cnn12` [Compound 69, N-((3-(Dimethylamino)pyridin-2-yl)methyl)-3-(4-fluorophenyl)-5-phenylpyrazolo[1,5-a]pyrimidin-7-amine], the melting point lay within 167 to 170 °C. The IC50 in data set [1] was over 32 µg/mL. In data set [2], the “MIC90 LORA” value amounted to 0.49 µg/mL (≈ 1.12 µM). Moreover, the MIC90 in data set [3] amounted to 1.5 µg/mL (≈ 3.42 µM).

Turning to `CCc1cc(NCc2ccccn2)n2ncc(-c3ccc(F)cc3)c2n1` [Compound 23, 5-Ethyl-3-(4-fluorophenyl)-N-(pyridin-2-ylmethyl)pyrazolo[1,5-a]pyrimidin-7-amine], the melting point was 137 to 138 °C. Half-maximal inhibition in data set [1] (IC50) required 14.1 µg/mL (≈ 40.6 µM). For the same compound, in data set [2], the “MIC90 LORA” value was 0.45 µg/mL (≈ 1.3 µM). This compound also had an MIC90 in data set [3] of 1.4 µg/mL (≈ 4.03 µM).

On to `Cc1cccc(CNc2cc(-c3ccccc3)nc3c(-c4ccc(F)cc4)cnn23)n1` [Compound 47, 3-(4-Fluorophenyl)-N-((6-methylpyridin-2-yl)methyl)-5-phenylpyrazolo[1,5-a]pyrimidin-7-amine], for which the melting point lay within 177 to 180 °C. Also, the IC50 in data set [1] is over 32 µg/mL. In addition, the “MIC90 LORA” value in data set [2] is reported as over 32 µg/mL. Further, in data set [3], the MIC90 is over 32 µg/mL.

Turning to `Fc1ccc(-c2cnn3c(NCc4cccc(N5CCCCC5)n4)cc(-c4ccccc4)nc23)cc1` [Compound 50, 3-(4-Fluorophenyl)-5-phenyl-N-((6-(piperidin-1-yl)pyridin-2-yl)methyl)pyrazolo[1,5-a]pyrimidin-7-amine], the melting point lay in the range of 185 to 187 °C. This compound showed an IC50 in data set [1] of over 32 µg/mL. In addition, the “MIC90 LORA” value in data set [2] is 1.75 µg/mL (≈ 3.66 µM). The compound also displayed an MIC90 in data set [3] of 0.25 µg/mL (≈ 0.522 µM).

The values above are taken from paper PMC9506485, “Synthesis and Structure–Activity Relationships for the Anti-Mycobacterial Activity of 3-Phenyl-N-(Pyridin-2-ylmethyl)Pyrazolo[1,5-a]Pyrimidin-7-Amines” (Pharmaceuticals, 2022).
